Key:
[1] = test system: mice; assay: PCP-induced locomotor hyperactivity; assay type: in vivo, mouse
Experimental: (A). DOI, a hallucinogen and 5-HT2A agonist, was administered IP 10 min after SC administration of vehicle or test drug. A and then HTR activity was assessed for 30 minutes. *p<0.001, significant difference vs. vehicle (B). Vehicle or the NMDA receptor antagonist PCP (5 mg/kg) was injected IP 10 min after SC administration of vehicle or 25N-NB1-Nap (16), and then the mice were placed in the test chambers 10 min later for a 60-min assessment of locomotor activity. (C). […] Mice were treated with vehicle or M100907 (0.03 mg/kg SC) 10 min prior to vehicle or PCP (5 mg/kg IP): animals were placed in the test chambers 10 min after treatment with PCP. Animals were tested for 60 min. *p<0.01 vs. vehicle: ^#p<0.01 vs. PCP alone.
Male C57BL/6J mice (6-8 weeks old) from Jackson Labs (Bar Harbor, ME, USA) were used for the behavioral experiments. The mice were housed on a reversed light-dark cycle (lights on at 1900 h, off at 0700 h) in an AAAC-approved vivarium at the University of California San Diego. Mice were housed up to four per cage in a climate-controlled room and with food and water provided ad libitum except during behavioral testing. Testing was performed between 1000 and 1800 h (during the dark phase of the light-dark cycle). The studies were conducted in accordance with National Institutes Health (NIH) guidelines and were approved by the University of California San Diego Institutional Animal Care and Use Committee.
Edelfosine, DOI, R—(−)-DOI, and PCP were injected IP (5 mL/kg): 25N—NB and its derivatives were injected SC (5 mL/kg or 10 mL/kg): YM-254,890 was injected into the lateral ventricle (2 μL) over 1 min.
The mouse behavioral pattern monitor (BPM) was used to assess locomotor activity. Each mouse BPM chamber (San Diego Instruments, San Diego, CA, USA) is a transparent Plexiglas box with an opaque 30×60 cm floor, enclosed in a ventilated isolation box. The position of the mouse in x.y coordinates is recorded by a grid of 12×24 infrared photobeams located 1 cm above the floor. A second row of 16 photobeams (parallel to the long axis of the chamber, located 2.5 cm above the floor) is used to detect rearing behavior. Holepoking behavior is detected by 11 1.4-cm holes that are situated in the walls (3 holes in each long wall, 2 holes in each short wall) and the floor ([…]); each hole is equipped with an infrared photobeam. The status of each photobeam is sampled every 55 ms and recorded for offline analysis. Locomotor activity was quantified as distance traveled, which was analyzed in 20-min blocks using a three-way ANOVA, with pretreatment and treatment as between subject variables and time as a within-subject variable. Tukey's studentized range method was used for post hoc comparisons.

[2] = test system: male C57BL/6J mice; assay: Tolerance: DOI-induced HTR after 5 days repeated treatment; assay type: in vivo, mouse; details: 5 days SC: 25N-N1-Nap 20, DOI 10, pimavanserin 1 mg/kg/day
Experimental: The mice were allowed to recover from the magnet implantation surgeries for at least 1 week prior to behavioral testing. HTR experiments were conducted in a well-lit room, and the mice were allowed to habituate to the room for at least 1 h prior to testing. Head twitches was assessed in a 12-cm diameter glass cylinder surrounded by a magnetometer coil. Coil voltage was low-pass filtered (2 kHz), amplified, and digitized (20-kHz sampling rate) using a Powerlab/8SP with LabChart v 7.3.2 (ADInstruments, Colorado Springs, CO, USA). […] HTR counts were analyzed using one-way ANOVAs. Dunnett's test was used for post hoc comparisons.

[3] = test system: humans; details: intranasal or sublingual routes; cited from earlier work

Structure (SMILES) | Effect on baseline locomotor activity ([1]; 3 mg/kg SC) | Effect on PCP-induced locomotor hyperactivity ([1]; PCP 5 mg/kg IP, 25N-N1-Nap 3 mg/kg SC, M100907 0.03 mg/kg SC) | Ability of DOI (1 mg/kg IP) to induce the HTR after repeated daily treatment [2] | Active dose in humans [3] [mg]
COc1cc([N+](=O)[O-])c(OC)cc1CCNCc1cccc2ccccc12 [25N-N-1-Nap (16), [2-(2,5-dimethoxy-4-nitrophenyl)ethyl][(naphthalen-1-yl)methyl]amine] | had no effect | antagonized | reduced significantly | –
COc1cc([N+](=O)[O-])c(OC)cc1CCNCc1ccccc1OC [25N-NBOMe (4), [2-(2,5-dimethoxy-4-nitrophenyl)ethyl] [(2-methoxyphenyl)methyl]amine] | – | – | – | 0.3 to 0.8

From patent US20240254087A1, “SELECTIVE, PARTIAL, AND ARRESTIN-BIASED 5-HT2A AGONISTS WITH UTILITY IN VARIOUS DISORDERS” (Saint Joseph's University, priority 2021, published 2024)
